According to US9551021B2, “Methods and compositions for detecting pathogenic bacteria” (Washington University, priority 2012, dated 2017):
Entries after “also recorded” stand apart in the source; their conditions may differ.

What was measured:
[1] = Superoxide dismutase (SOD) activity, xanthine/xanthine oxidase WST-1 formazan assay; type: biochemical; conditions: for superoxide dismutase activity in the presence of protein: 1.0 mg/mL bovine serum albumin; for SOD activity, percentage inhibition rate / superoxide dismutase activity (in words): WST-formazan assay, no added protein
Protocol: Reduction of WST-1 was monitored at 440 nm in a final volume of 100 μL. One unit of activity was defined as the amount of compound which blocked 50% WST-1 reduction under these conditions. […] To determine whether SOD activity is retained in the presence of protein, these experiments were repeated in the presence of 1.0 mg/mL bovine serum albumin (Sigma).

UT189 = assay: Copper mediated cytotoxicity assay, wild type strain; type: cell-based, E. coli; conditions: for effect on viability: 20 μM alone, no copper; for effect on copper (II) sulfate toxicity: exogenous addition of 20 μM
Protocol: (§1) Following overnight growth in 50 mL M63 minimal media, bacterial cultures were washed twice in phosphate buffered saline (PBS, Sigma) and centrifuged at 6,500 rpm. Washed cultures were resuspended in fresh M63 minimal media, and normalized to 10^8 CFU/mL for subsequent treatment. Normalized cultures were treated with varying concentrations of copper (II) sulfate and test agent in 2 mL reaction volumes in 6-well tissue culture plates. Samples were incubated for 20 hours at 37° C. with shaking. Bacterial viability was reported as the number of colony forming units per milliliter of the reaction volume post-treatment (CFU/mL).

[2] = Free copper (I) determination with bathocuproine; conditions: for reduction of copper (II) to copper (I): 20 μM reductant, 17.5 μM copper (II) sulfate
Protocol: Free copper (I) was determined spectrophotometrically using the copper (I) indicator bathocuproine. Briefly, 25 μM bathocuproine, 25 μM apo-yersiniabactin, and 17.5 μM copper (II) sulfate, were used in combination in order-of-addition experiments, as well as alone as controls in PBS. Either 20 μM enterobactin (Sigma) or its catecholate moiety, 2,3-dihydroxybenzoic acid (DHB) were added as bioreductants. Following a 30 minute room temperature incubation, 25 μM bathocuproine was added and copper (I) levels were determined by measuring the visible absorbance at 480 nm of the cuprous-bathocuproine complex. Final concentrations of copper (I) were determined by comparison to a standard curve.

[3] = UV-Vis spectroscopy of metal interaction; type: physicochemical; conditions: purified HPTT with Fe (III) and Cu (II)
Excerpt: At this point, it had been confirmed that HPTT is detectable in vivo in a model UPEC strain that makes yersiniabactin. FIG. 24 confirms that HPTT is detected in wildtype UT189 but not UT189 strains comprising deletions in the yersiniabactin synthesis pathway (ybtS and ybtE). Given that HPTT is being secreted outside the cell and that it is made in relatively high abundance, we wanted to see if HPTT could be performing a specific function for the bacteria, and not simply a transient intermediate along the way to Ybt (FIG. 24). Given that its structure is similar to yersiniabactin, a siderophore, we hypothesized that it could interact with metals. Using solid phase extraction and HPLC, HPTT was purified to homogeneity with no contaminants, as detectable by HPLC. The purified compound was used to look for interactions with iron and copper by UV-Vis spectroscopy.

[4] = tested on: E. coli clinical isolates; assay: Antimicrobial susceptibility of clinical isolates by disk diffusion; type: cell-based; conditions: for resistant clinical isolates: 337 bacteriuric inpatient clinical isolates
Excerpt: The samples were collected as part of a Washington University Institutional Review Board-approved prospective study of patients with E. coli bacteriuria (>5×10^4 colony forming units per milliliter) described by Marschall et al.^11 Strains without associated blood culture data were not excluded from this study. Briefly, clinical isolates were collected from male and female patients with significant bacteriuria. Bacterial DNA was extracted using a QIAamp DNA mini kit (Qiagen, Valencia, Calif.). DNA probes for virulence genes were conducted as previously described^11, and the presence of these genes was determined by dot-blot hybridization using a microarray system as described elsewhere (Table 1). E. coli phylogenetic group was determined from hybridization results using the triple genotyping method of Clermont et al.^25 Antimicrobial susceptibility was determined using disk diffusion tests. Bacteriuria was defined as? 5×10^4 colony forming units (CFU)/mL in non-catheterized patients and ≧5×10^3 CFU/mL in catheterized patients, as well as by using the patients' documented urinary symptoms. Pyelonephritis was defined as the presence of flank pain and tenderness and/or fever; sepsis and sepsis-induced hypotension were defined using established clinical criteria. The Microbiology Laboratory at Barnes Jewish Hospital provided clinical antibiogram data.

RAW264.7 macrophages = conditions: 25 mM DPI, data not shown
UTI89ΔybtS = assay: Copper mediated cytotoxicity assay, yersiniabactin-deficient strain; type: cell-based, E. coli
Protocol: as §1

[5] = tested on: yersiniabactin biosynthesis; assay: Inhibition of yersiniabactin biosynthesis in a urinary pathogenic E. coli strain; type: cell-based
Excerpt: (§2) The ability of PAS to inhibit yersiniabactin biosynthesis in a urinary pathogenic E. coli strain was examined.

[6] = tested on: urinary pathogenic E. coli strain; assay: In vitro growth of urinary pathogenic E. coli strain; type: cell-based; conditions: at levels that inhibit yersiniabactin biosynthesis
Excerpt: as §2

copper (II)-salicylate
superoxide dismutase activity in the presence of protein [1]: suppressed; also recorded: quenched
SOD activity, percentage inhibition rate [1]: 61.6%

[Cl][Fe]([Cl])[Cl] [ferric chloride]
superoxide dismutase activity (in words) [1]: did not demonstrate any superoxide dismutase like activity

CC(C)(C1=N[C@@](C)(C(=O)O)CS1)[C@H](O)[C@@H]1CSC([C@H]2CSC(c3ccccc3O)=N2)[N-]1.[Fe] (stereo partly drawn) [ferric complexes of yersiniabactin]
SOD activity, percentage inhibition rate [1]: 41.4%
superoxide dismutase activity (in words) [1]: demonstrated SOD-like activity

O=C(O)c1cccc(O)c1O [DHB, 2,3-dihydroxybenzoic acid]
effect on viability (UT189): minimal effect
effect on copper (II) sulfate toxicity (UT189): enhances copper (II) sulfate toxicity
reduction of copper (II) to copper (I) [2]: 93.1%

hydroxphenyl-thiazolinyl-thaizolinyl [HPTT]
UV-Vis spectra in the presence of metal [3]: red-shifted

O=C(N[C@H]1COC(=O)[C@@H](NC(=O)c2cccc(O)c2O)COC(=O)[C@@H](NC(=O)c2cccc(O)c2O)COC1=O)c1cccc(O)c1O [enterobactin]
effect on viability (UT189): minimal effect
effect on copper (II) sulfate toxicity (UT189): enhances copper (II) sulfate toxicity
reduction of copper (II) to copper (I) [2]: 84.7%

trimethoprim-sulfamethoxazole [TMP/S]
resistant clinical isolates [4]: 29%
resistant clinical isolates ([4]; listed as trimethoprim/sulfamethoxazole (TMP/S)): 96 (29) total (%)
susceptibility ([4]; fyuA+iroN siderophore genotype (CI community 3, BC 1+3)): highly susceptible
association with phenotypic resistance ([4]; fyuA+iucD strategists (CI community 2, BC 1+2)): moderately with TMP/S resistance

c1ccc2c(c1)[I+]c1ccccc1-2 [DPI, Diphenyleneiodonium]
oxidative-burst activity (RAW264.7 macrophages): decreased oxidative-burst activity to background levels
phagocytosis (RAW264.7 macrophages): without any gross defect in phagocytosis

CC(C)(C1=N[C@@](C)(C(=O)O)CS1)[C@H](O)[C@@H]1CSC([C@H]2CSC(c3ccccc3O)=N2)N1 (stereo partly drawn) [apo-yersiniabactin]
superoxide dismutase activity (in words) [1]: did not demonstrate superoxide dismutase activity and not
cytoprotection from copper toxicity (UTI89ΔybtS; added in 1.5-fold molar excess over copper (II) sulfate): restores growth to untreated wild type levels
effect on bacterial viability (UTI89ΔybtS; in the absence of copper): negligible effect
decrease in viable cells compared to wild type (UTI89ΔybtS; purified apo-Ybt added with 10 μM copper sulfate): 0.024 log
copper (I) bathocuproine signal ([2]; apo-Ybt added before enterobactin or DHB, listed as Apo-yersiniabactin): prevents catechol-dependent reduction
copper (I) bathocuproine signal ([2]; apo-Ybt added before enterobactin or DHB, listed as apo-Ybt): almost completely blocked
copper (I) bathocuproine signal ([2]; enterobactin or DHB added before apo-Ybt): restored the copper (I) signal

O=S(=O)([O-])[O-].[Cu+2] [copper sulfate, copper (II) sulfate]
superoxide dismutase activity in the presence of protein [1]: suppressed
SOD activity, percentage inhibition rate [1]: 33.8%
superoxide dismutase activity (in words) [1]: did not demonstrate any superoxide dismutase like activity
decrease in bacterial viability (UTI89ΔybtS; 10 μM copper sulfate alone): > 3 log CFU/mL
reduction of viable colonies (UT189; 10 μM copper (II) sulfate alone): 2.5 log

bovine Cu/Zn SOD: bovine Cu/Zn superoxide dismutase used as a standard (Sigma S-7571)
superoxide dismutase activity (in words) [1]: completely inhibited superoxide anion formation

Nc1ccc(C(=O)O)c(O)c1 [PAS, Para-aminosalicylic acid]
inhibition of yersiniabactin biosynthesis [5]: selectively inhibits yersiniabactin biosynthesis
inhibition of in vitro growth [6]: did not inhibit in vitro growth; also recorded: without inhibiting growth
